This note sets out measurements from ChEMBL document CHEMBL3603741, “Structure activity relationship of pyridoxazinone substituted RHS analogs of oxabicyclooctane-linked 1,5-naphthyridinyl novel bacterial topoisomerase inhibitors as broad-spectrum antibacterial agents (Part-6)” (Bioorg Med Chem Lett, 2015).

pIC50: −log10 of the molar value. In brackets after ≈: the same amount, converted by molar mass.

For assay [1], the system named is Escherichia coli. Briefly: Antibacterial activity against Escherichia coli ATCC 25922. Type of assay: functional.
Assay [2] concerns Acinetobacter baumannii. As to the kind of experiment: Antibacterial activity against Acinetobacter baumannii IID876. Type of assay: functional.
Assay [3] concerns Streptococcus pneumoniae. Briefly: Antibacterial activity against Streptococcus pneumoniae IID553. The class given is functional.
The subject of assay [4] is Enterococcus faecium. Briefly: Antibacterial activity against VanA-resistant Enterococcus faecium. Type of assay: functional.
In assay [5] the test system is Pseudomonas aeruginosa. Briefly: Antibacterial activity against Pseudomonas aeruginosa PAO1. Type of assay: functional.
In assay [6] the test system is Staphylococcus aureus. As to the kind of experiment: Antibacterial activity against Staphylococcus aureus Smith. The class given is functional.
Assay [7] relates to Staphylococcus aureus. Briefly: Ratio of MIC for quinolone-resistant Staphylococcus aureus MS5935 to MIC for […]. Type of assay: functional.
For assay [8], the target named is T1, Voltage-gated inwardly rectifying potassium channel KCNH2 (Homo sapiens, UniProt Q12809). As to the kind of experiment: Inhibition of MK499 binding to human ERG.
Assay [9] concerns the target T1, Voltage-gated inwardly rectifying potassium channel KCNH2. Briefly: Inhibition of human ERG expressed in CHO cells measured for 5 mins by automated patch clamp assay. (The patch-clamp technique gives a direct electrical read-out from membranes.)
The subject of assay [10] is Staphylococcus aureus. Briefly: Antibacterial activity against Staphylococcus aureus Smith infected in iv dosed ICR mouse assessed as increase in survival rate administered at 1 hr post infection measured on day 7. Type of assay: functional.
Assay [11] concerns Staphylococcus aureus. As to the kind of experiment: Antibacterial activity against Staphylococcus aureus Smith infected in po dosed ICR mouse assessed as increase in survival rate administered at 1 hr post infection measured on day 7. Type of assay: functional.
Where [12] appears, read: Escherichia coli, ATCC 25922, read-out: MIC.
Where [13] appears, read: Acinetobacter baumannii, IID876, read-out: MIC.
Setting [14] is: Streptococcus pneumoniae, IID553, read-out: MIC.
The mark [15] stands for this setting: Enterococcus faecium, read-out: MIC.
[16] abbreviates: Pseudomonas aeruginosa, PAO1, read-out: MIC.
[17] abbreviates: Staphylococcus aureus, Smith, read-out: MIC.

T1 sequence (Q12809 whole entry): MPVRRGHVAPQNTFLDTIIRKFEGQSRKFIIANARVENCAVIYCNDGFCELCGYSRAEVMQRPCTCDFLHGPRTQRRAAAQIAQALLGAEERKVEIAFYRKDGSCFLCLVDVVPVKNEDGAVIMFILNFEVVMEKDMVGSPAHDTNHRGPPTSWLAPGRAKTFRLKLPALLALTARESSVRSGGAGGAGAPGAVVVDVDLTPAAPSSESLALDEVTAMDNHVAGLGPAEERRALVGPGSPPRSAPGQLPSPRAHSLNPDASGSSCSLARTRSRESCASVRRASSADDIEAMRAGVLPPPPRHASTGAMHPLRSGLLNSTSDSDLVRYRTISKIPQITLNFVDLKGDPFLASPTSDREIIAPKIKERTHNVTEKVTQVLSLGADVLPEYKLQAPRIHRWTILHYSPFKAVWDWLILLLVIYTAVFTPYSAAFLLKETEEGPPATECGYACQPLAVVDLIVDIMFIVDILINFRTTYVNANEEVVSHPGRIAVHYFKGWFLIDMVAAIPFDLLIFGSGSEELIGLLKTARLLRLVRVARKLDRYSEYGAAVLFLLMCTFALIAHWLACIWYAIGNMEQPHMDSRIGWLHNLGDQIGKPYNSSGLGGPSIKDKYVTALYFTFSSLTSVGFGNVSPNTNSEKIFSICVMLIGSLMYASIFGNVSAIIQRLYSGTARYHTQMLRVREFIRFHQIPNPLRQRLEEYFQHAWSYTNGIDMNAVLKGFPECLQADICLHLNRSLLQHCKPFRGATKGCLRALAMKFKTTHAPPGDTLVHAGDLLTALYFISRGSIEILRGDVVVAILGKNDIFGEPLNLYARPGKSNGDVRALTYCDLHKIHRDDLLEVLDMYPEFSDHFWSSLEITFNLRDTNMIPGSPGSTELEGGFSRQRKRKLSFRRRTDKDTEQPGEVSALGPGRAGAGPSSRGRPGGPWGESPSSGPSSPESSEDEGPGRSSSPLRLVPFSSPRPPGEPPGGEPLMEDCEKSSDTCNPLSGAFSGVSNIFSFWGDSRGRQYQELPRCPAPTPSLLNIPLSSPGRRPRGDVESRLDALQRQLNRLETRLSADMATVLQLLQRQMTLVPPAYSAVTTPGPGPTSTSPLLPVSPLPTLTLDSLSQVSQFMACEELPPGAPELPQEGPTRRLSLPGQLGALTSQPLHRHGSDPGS

As for `COc1ccc2ncc(F)c(CCC34CCC(NCc5ccc6c(n5)N(C)C(=O)CO6)(CC3)CO4)c2n1`, the MIC (as a rule, the smallest concentration in the dilution series that meets the test's criterion for growth inhibition) in assay [1] (setting [12]) stood at 16 µg/mL (≈ 31.5 µM); in [2] (setting [13]), 16 µg/mL (≈ 31.5 µM); in [3] (setting [14]), 2 µg/mL (≈ 3.94 µM); in assay [4] (setting [15]) it was 16 µg/mL (≈ 31.5 µM); in assay [5] (setting [16]), 16 µg/mL (≈ 31.5 µM); in [6] (setting [17]), 2 µg/mL (≈ 3.94 µM).

With `COc1ccc2ncc(F)c(CCC34CCC(N(C)Cc5ccc6c(n5)NC(=O)CO6)(CC3)CO4)c2n1`, the Ratio in assay [7] is under 4. Also, the MIC in assay [1] (setting [12]) is 16 µg/mL (≈ 31.5 µM); in assay [2] (setting [13]) it was 8 µg/mL (≈ 15.8 µM); in [3] (setting [14]), 2 µg/mL (≈ 3.94 µM); in assay [4] (setting [15]), 8 µg/mL (≈ 15.8 µM); in assay [5] (setting [16]), 32 µg/mL (≈ 63 µM); in assay [6] (setting [17]) it was 0.13 µg/mL (≈ 0.256 µM). For the same molecule, the pIC50 (in general, the IC50 on a negative log10 scale, so that one unit is a factor of ten) in assay [8] was 5.92.

Turning to `COC(=O)N(Cc1ccc2c(n1)NC(=O)CO2)C12CCC(CCc3c(F)cnc4ccc(OC)nc34)(CC1)OC2`, the minimal inhibitory concentration (MIC) in [1] (setting [12]) is 64 µg/mL (≈ 116 µM); in assay [2] (setting [13]), 64 µg/mL (≈ 116 µM); in assay [3] (setting [14]), 64 µg/mL (≈ 116 µM); in [4] (setting [15]), 64 µg/mL (≈ 116 µM); in [5] (setting [16]), 64 µg/mL (≈ 116 µM); in [6] (setting [17]), 16 µg/mL (≈ 29 µM).

Turning to `COc1ccc2ncc(F)c(CCC34CCC(NC(=O)c5ccc6c(n5)NC(=O)CO6)(CC3)CO4)c2n1`, the MIC in assay [1] (setting [12]) was 8 µg/mL (≈ 15.8 µM); in [2] (setting [13]), 8 µg/mL (≈ 15.8 µM); in assay [3] (setting [14]) it was 0.5 µg/mL (≈ 0.985 µM); in [4] (setting [15]), 1 µg/mL (≈ 1.97 µM); in assay [5] (setting [16]), 8 µg/mL (≈ 15.8 µM); in assay [6] (setting [17]), 0.02 µg/mL (≈ 0.0394 µM).

In the case of `COc1ccc2ncc(F)c(CCC34CCC(N(C)C(=O)c5ccc6c(n5)NC(=O)CO6)(CC3)CO4)c2n1`, the figures for the pIC50 in assay [9] and in assay [8] were under 4.52 and under 4.22, respectively. Also, the Ratio in assay [7] is reported as under 4. Moreover, the MIC in assay [1] (setting [12]) came to 4 µg/mL (≈ 7.67 µM); in [2] (setting [13]) it was 4 µg/mL (≈ 7.67 µM); in [3] (setting [14]) it was 4 µg/mL (≈ 7.67 µM); in assay [4] (setting [15]), 4 µg/mL (≈ 7.67 µM); in assay [5] (setting [16]), 4 µg/mL (≈ 7.67 µM); in [6] (setting [17]), 0.03 µg/mL (≈ 0.0575 µM).

Turning to `COc1ccc2ncc(F)c(C[C@H](O)C3CCC(NCc4nc5c(cc4F)OCC(=O)N5)CO3)c2n1` (stereo partly drawn), the MIC in assay [1] (setting [12]) was 4 µg/mL (≈ 7.98 µM); in assay [2] (setting [13]), 1 µg/mL (≈ 1.99 µM); in [3] (setting [14]) it was 0.25 µg/mL (≈ 0.499 µM); in [4] (setting [15]), 2 µg/mL (≈ 3.99 µM); in assay [5] (setting [16]) it was 16 µg/mL (≈ 31.9 µM); in [6] (setting [17]), 0.03 µg/mL (≈ 0.0598 µM). Further, the ED50 – broadly, the dose at which the effect has come halfway, by size or by number of responders – was 3.2 mg/kg in assay [10] and 6.7 mg/kg in assay [11].

In the case of `COc1ccc2ncc(F)c(C[C@H](O)C3CCC(NCc4nc5c(cc4OC)OCC(=O)N5)CO3)c2n1` (stereo partly drawn), the Ratio in assay [7] is given as under 4. The MIC in assay [1] (setting [12]), in assay [2] (setting [13]), in [3] (setting [14]), in assay [4] (setting [15]), in assay [5] (setting [16]) and in [6] (setting [17]) was 16 µg/mL (≈ 31.2 µM) each time.

`COc1ccc2ncc(F)c(C[C@H](O)C3CCC(NCc4ccc5c(n4)NC(=O)CO5)CO3)c2n1` (stereo partly drawn): the Ratio in assay [7] is on record as under 4. Further, the MIC in [1] (setting [12]) was 16 µg/mL (≈ 33.1 µM); in assay [2] (setting [13]) it was 2 µg/mL (≈ 4.14 µM); in [3] (setting [14]), 2 µg/mL (≈ 4.14 µM); in assay [4] (setting [15]), 2 µg/mL (≈ 4.14 µM); in [5] (setting [16]) it was 32 µg/mL (≈ 66.2 µM); in [6] (setting [17]), 0.03 µg/mL (≈ 0.062 µM).

On to `COc1ccc2ncc(F)c(CCC34CCC(NCc5ccc6c(n5)NC(=O)C(C)O6)(CC3)CO4)c2n1` (single isomer, unassigned; (+)), for which the MIC in [1] (setting [12]) was determined as 2 µg/mL (≈ 3.94 µM); in [2] (setting [13]), 2 µg/mL (≈ 3.94 µM); in [3] (setting [14]), 0.25 µg/mL (≈ 0.493 µM); in [4] (setting [15]), 2 µg/mL (≈ 3.94 µM); in assay [5] (setting [16]) it was 2 µg/mL (≈ 3.94 µM); in assay [6] it was 0.25 µg/mL (≈ 0.493 µM).

Take `CCOC(=O)C1(C)Oc2ccc(CNC34CCC(CCc5c(F)cnc6ccc(OC)nc56)(CC3)OC4)nc2NC1=O` (single isomer, unassigned; (+)): the MIC in assay [1] (setting [12]), in assay [2] (setting [13]), in [3], in assay [4] (setting [15]), in assay [5] (setting [16]) and in assay [6] (setting [17]) was 16 µg/mL (≈ 27.6 µM) each time.

For `COc1ccc2ncc(F)c(CCC34CCC(NCc5ccc6c(n5)NC(=O)C(C)O6)(CC3)CO4)c2n1` (single isomer, unassigned; (-)), the minimum inhibitory concentration (MIC) stood at 2 µg/mL (≈ 3.94 µM) in assay [1]; 1 µg/mL (≈ 1.97 µM) in assay [2]; 0.25 µg/mL (≈ 0.493 µM) in assay [3]; 2 µg/mL (≈ 3.94 µM) in [4]; 2 µg/mL (≈ 3.94 µM) in assay [5]; 0.06 µg/mL (≈ 0.118 µM) in [6]. Moreover, the ED50 worked out at 14 mg/kg in assay [10] and 28 mg/kg in [11].

Consider `CCOC(=O)C1(C)Oc2ccc(CNC34CCC(CCc5c(F)cnc6ccc(OC)nc56)(CC3)OC4)nc2NC1=O` (single isomer, unassigned; (-)), for which the MIC in [1], in [2], in assay [3] (setting [14]), in assay [4], in assay [5] and in assay [6] was 8 µg/mL (≈ 13.8 µM) in each case.
